Source: patent US9255090B2, “Heterocyclyl derivatives and their use as prostaglandin D2 receptor modulators” (Actelion Pharmaceuticals Ltd., priority 2012, dated 2016)

Target: hCRTH2 receptor (Homo sapiens (Human), UniProt Q9Y5Y4)
Assay: hCRTH2 receptor membranes radioligand (3H-PGD2) displacement assay
Assay type: binding
Settings: 3H-PGD2 radioligand displacement, HEK293-hCRTH2 membranes
How it was run: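 Compound was first mixed with buffer, then 3H-PGD2 was added at 2.5 nM, and the reaction was started with hCRTH2 membranes from HEK293 cells at 20 μg/well. After 90 min at room temperature, mixtures were filtered and washed with ice-cold buffer, and retained radioactivity was counted.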

hCRTH2 receptor, sequence (Q9Y5Y4 whole entry): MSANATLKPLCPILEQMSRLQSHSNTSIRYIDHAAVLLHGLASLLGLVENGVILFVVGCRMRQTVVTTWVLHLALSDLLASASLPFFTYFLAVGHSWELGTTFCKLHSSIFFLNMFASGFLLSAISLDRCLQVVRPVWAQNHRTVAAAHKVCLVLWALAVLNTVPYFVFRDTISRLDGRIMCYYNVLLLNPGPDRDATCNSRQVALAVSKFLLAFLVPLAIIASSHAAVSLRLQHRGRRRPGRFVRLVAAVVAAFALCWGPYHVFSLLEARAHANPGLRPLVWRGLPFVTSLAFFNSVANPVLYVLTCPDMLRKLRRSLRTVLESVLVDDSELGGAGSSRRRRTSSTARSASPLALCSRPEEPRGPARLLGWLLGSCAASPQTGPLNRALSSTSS

IC50 [nM] | Structure (SMILES)
67.8 | COc1ccc(CC(=O)O)cc1-c1ccc(C(F)(F)F)c2c1CN(C(=O)OCc1ccccc1)CC2 [Example 158, 8-(5-Carboxymethyl-2-methoxy-phenyl)-5-trifluoromethyl-3,4-dihydro-1H-isoquinoline-2-carboxylic acid benzyl ester]
594 | COc1ccc(CC(=O)O)cc1-c1ccc(F)c2c1CCN(C(=O)OCc1ccccc1)C2 [Example 159, 5-(5-Carboxymethyl-2-methoxy-phenyl)-8-fluoro-3,4-dihydro-1H-isoquinoline-2-carboxylic acid benzyl ester]
0.67 | O=C(O)COc1ccc(OC(F)(F)F)c(-c2ccc(F)c3c2CN(C(=O)[C@@H]2C[C@H]2c2ccccc2)CC3)c1 [Example 160, {3-[5-Fluoro-2-((1R,2R)-2-phenyl-cyclopropanecarbonyl)-1,2,3,4-tetrahydro-isoquinolin-8-yl]-4-trifluoromethoxy-phenoxy}-acetic acid]
1.38 | CC(C)Oc1ccc(OCC(=O)O)cc1-c1ccc(F)c2c1CN(C(=O)[C@@H]1C[C@H]1c1ccccc1)CC2 [Example 161, {3-[5-Fluoro-2-((1R,2R)-2-phenyl-cyclopropanecarbonyl)-1,2,3,4-tetrahydro-isoquinolin-8-yl]-4-isopropoxy-phenoxy}-acetic acid]
47.3 | O=C(O)Cc1ccc(-c2ccc(F)c3c2CN(C(=O)OCc2ccccc2)CC3)c(F)c1 [Example 164, 8-(4-Carboxymethyl-2-fluoro-phenyl)-5-fluoro-3,4-dihydro-1H-isoquinoline-2-carboxylic acid benzyl ester]
26.3 | O=C(O)Cc1ccc(-c2ccc(F)c3c2CN(C(=O)OCc2ccccc2)CC3)c(Cl)c1 [Example 165, 8-(4-Carboxymethyl-2-chloro-phenyl)-5-fluoro-3,4-dihydro-1H-isoquinoline-2-carboxylic acid benzyl ester]
15.4 | O=C(O)Cc1cc2c(c(-c3ccc(F)c4c3CN(C(=O)OCc3ccccc3)CC4)c1)OCO2 [Example 167, 8-(6-Carboxymethyl-benzo[1,3]dioxol-4-yl)-5-fluoro-3,4-dihydro-1H-isoquinoline-2-carboxylic acid benzyl ester]
110 | COc1ccc(CC(=O)O)cc1-c1cccc2c1CN(C(=O)OCc1ccccc1)CC2 [Example 170, 8-(5-Carboxymethyl-2-methoxy-phenyl)-3,4-dihydro-1H-isoquinoline-2-carboxylic acid benzyl ester]
209 | O=C(O)COc1ccc(-c2ccc(F)c3c2CN(C(=O)OCc2ccccc2)CC3)cc1 [Example 172, 8-(4-Carboxymethoxy-phenyl)-5-fluoro-3,4-dihydro-1H-isoquinoline-2-carboxylic acid benzyl ester]
91.4 | O=C(O)COc1ccc(F)cc1-c1cccc2c1CN(C(=O)OCc1ccccc1)CC2 [Example 173, 8-(2-Carboxymethoxy-5-fluoro-phenyl)-3,4-dihydro-1H-isoquinoline-2-carboxylic acid benzyl ester]
289 | O=C(O)CCCOc1ccc(F)cc1-c1cccc2c1CN(C(=O)OCc1ccccc1)CC2 [Example 174, 8-[2-(3-Carboxy-propoxy)-5-fluoro-phenyl]-3,4-dihydro-1H-isoquinoline-2-carboxylic acid benzyl ester]
117 | O=C(O)COc1cccc(-c2ccc(F)c3c2CN(C(=O)OCc2ccccc2)CC3)c1 [Example 175, 8-(3-Carboxymethoxy-phenyl)-5-fluoro-3,4-dihydro-1H-isoquinoline-2-carboxylic acid benzyl ester]
13.6 | O=C(O)COc1ccc(Cl)c(-c2ccc(F)c3c2CN(C(=O)OCc2ccccc2)CC3)c1 [Example 176, 8-(5-Carboxymethoxy-2-chloro-phenyl)-5-fluoro-3,4-dihydro-1H-isoquinoline-2-carboxylic acid benzyl ester]
17.5 | O=C(O)COc1ccc(Cl)c(-c2ccc(Cl)c3c2CN(C(=O)OCc2ccccc2)CC3)c1 [Example 178, 8-(5-Carboxymethoxy-2-chloro-phenyl)-5-chloro-3,4-dihydro-1H-isoquinoline-2-carboxylic acid benzyl ester]
250 | Cc1ccc(-c2cc(OCC(=O)O)ccc2Cl)c2c1CCN(C(=O)OCc1ccccc1)C2 [Example 179, 8-(5-Carboxymethoxy-2-chloro-phenyl)-5-methyl-3,4-dihydro-1H-isoquinoline-2-carboxylic acid benzyl ester]
208 | O=C(O)COc1ccc(Cl)c(-c2ccc(C(F)(F)F)c3c2CN(C(=O)OCc2ccccc2)CC3)c1 [Example 180, 8-(5-Carboxymethoxy-2-chloro-phenyl)-5-trifluoromethyl-3,4-dihydro-1H-isoquinoline-2-carboxylic acid benzyl ester]
123 | O=C(O)COc1ccc(Cl)c(-c2cccc3c2CN(C(=O)OCc2ccccc2)CC3)c1 [Example 181, 8-(5-Carboxymethoxy-2-chloro-phenyl)-3,4-dihydro-1H-isoquinoline-2-carboxylic acid benzyl ester]

IC50 [nM] | Structure (SMILES)
0.9 | COc1cc(CC(=O)O)ccc1-c1ccc(F)c2c1CN(C(=O)[C@@H]1C[C@H]1c1ccccc1)CC2 [Example 184, {4-[5-Fluoro-2-((1R,2R)-2-phenyl-cyclopropanecarbonyl)-1,2,3,4-tetrahydro-isoquinolin-8-yl]-3-methoxy-phenyl}-acetic acid]
2.66 | COc1cc(CC(=O)O)ccc1-c1ccc(F)c2c1CN(C(=O)CCc1c(C)[nH]c3ccccc13)CC2 [Example 186, (4-{5-Fluoro-2-[3-(2-methyl-1H-indol-3-yl)-propionyl]-1,2,3,4-tetrahydro-isoquinolin-8-yl}-3-methoxy-phenyl)-acetic acid]
7.25 | COc1cc(CC(=O)O)ccc1-c1ccc(F)c2c1CN(C(=O)CCn1ncc3cc(F)ccc31)CC2 [Example 190, (4-{5-Fluoro-2-[3-(5-fluoro-indazol-1-yl)-propionyl]-1,2,3,4-tetrahydro-isoquinolin-8-yl}-3-methoxy-phenyl)-acetic acid]
2.42 | COc1cc(CC(=O)O)ccc1-c1ccc(F)c2c1CN(C(=O)CCN1CCc3ccccc31)CC2 [Example 191, {4-[2-(3-2,3-Dihydro-indol-1-yl-propionyl)-5-fluoro-1,2,3,4-tetrahydro-isoquinolin-8-yl]-3-methoxy-phenyl}-acetic acid]
0.69 | COc1cc(CC(=O)O)ccc1-c1ccc(F)c2c1CN(C(=O)CCOc1ccc(F)cc1)CC2 [Example 192, (4-{5-Fluoro-2-[3-(4-fluoro-phenoxy)-propionyl]-1,2,3,4-tetrahydro-isoquinolin-8-yl}-3-methoxy-phenyl)-acetic acid]
179 | COc1cc(OC(C)C(=O)O)ccc1-c1ccc(F)c2c1CN(C(=O)OCc1ccccc1)CC2 (stereo not drawn) [Example 202, 8-[4-(1-Carboxy-ethoxy)-2-methoxy-phenyl]-5-fluoro-3,4-dihydro-1H-isoquinoline-2-carboxylic acid benzyl ester]
11.4 | CCOc1ccc(CC(=O)O)cc1-c1ccc(F)c2c1CN(C(=O)CC(C)c1ccc(F)cc1)CC2 (stereo not drawn) [Example 212, (4-Ethoxy-3-{5-fluoro-2-[3-(4-fluoro-phenyl)-butyryl]-1,2,3,4-tetrahydro-isoquinolin-8-yl}-phenyl)-acetic acid]
111 | CCOc1ccc(CC(=O)O)cc1-c1ccc(F)c2c1CN(C(=O)C(C)Cc1ccccc1)CC2 (stereo not drawn) [Example 213]
3.6 | CCCc1ccc(CC(=O)O)cc1-c1ccc(F)c2c1CN(C(=O)OCc1ccccc1)CC2 [Example 215, 8-(5-Carboxymethyl-2-propyl-phenyl)-5-fluoro-3,4-dihydro-1H-isoquinoline-2-carboxylic acid benzyl ester]
19.4 | CC(C)c1cc(CC(=O)O)ccc1-c1ccc(F)c2c1CN(C(=O)OCc1ccccc1)CC2 [Example 216, 8-(4-Carboxymethyl-2-isopropyl-phenyl)-5-fluoro-3,4-dihydro-1H-isoquinoline-2-carboxylic acid benzyl ester]
1.7 | COc1cc(CC(=O)O)cc(OC)c1-c1ccc(F)c2c1CN(C(=O)OCc1ccccc1)CC2 [Example 218, 8-(4-Carboxymethyl-2,6-dimethoxy-phenyl)-5-fluoro-3,4-dihydro-1H-isoquinoline-2-carboxylic acid benzyl ester]
13.5 | CCOc1ccc(CC(=O)O)cc1-c1ccc(F)c2c1CN(C(=O)[C@@H]1C[C@H]1c1ccccc1)CC2 [Example 220, {4-Ethoxy-3-[5-fluoro-2-((1R,2R)-2-phenyl-cyclopropanecarbonyl)-1,2,3,4-tetrahydro-isoquinolin-8-yl]-phenyl}-acetic acid]
10.5 | CCOc1cc(CC(=O)O)ccc1-c1ccc(F)c2c1CN(C(=O)[C@@H]1C[C@H]1c1ccccc1)CC2 [Example 231, {3-Ethoxy-4-[5-fluoro-2-((1R,2R)-2-phenyl-cyclopropanecarbonyl)-1,2,3,4-tetrahydro-isoquinolin-8-yl]-phenyl}-acetic acid]
146 | COc1ccc(CC(=O)O)cc1-c1ccc(F)c2c1CN(C(=O)CC1(c3ccccc3)CCC1)CC2 [Example 250, (3-{5-Fluoro-2-[2-(1-phenyl-cyclobutyl)-acetyl]-1,2,3,4-tetrahydro-isoquinolin-8-yl}-4-methoxy-phenyl)-acetic acid]
414 | COc1ccc(CC(=O)O)cc1-c1ccc(F)c2c1CN(C(=O)CC1(c3ccc(F)cc3)CCC1)CC2 [Example 251, [3-(5-Fluoro-2-{2-[1-(4-fluoro-phenyl)-cyclobutyl]-acetyl}-1,2,3,4-tetrahydro-isoquinolin-8-yl)-4-methoxy-phenyl]-acetic acid]
614 | COc1ccc(CC(=O)O)cc1-c1ccc(F)c2c1CN(C(=O)CC1CC1)CC2 [Example 254, {3-[2-(2-Cyclopropyl-acetyl)-5-fluoro-1,2,3,4-tetrahydro-isoquinolin-8-yl]-4-methoxy-phenyl}-acetic acid]
